Experimental data taken from PubChem BioAssay (NCI).
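Results reflect a 48-hour exposure of cells in 96-well plates to compound at five concentrations. GI50: concentration for 50% inhibition of growth. TGI: concentration producing complete growth inhibition.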

Legend:
Assay in all cases: DTP human tumour cell line panel, 48 h
OVCAR-5 ovarian = test system: OVCAR-5 ovarian
RXF-631 renal = test system: RXF-631 renal
HCT-116 colon = test system: HCT-116 colon
SK-MEL-2 melanoma = test system: SK-MEL-2 melanoma
SF-539 CNS = test system: SF-539 CNS
A549 NSCLC = test system: A549 NSCLC
DLD-1 colon = test system: DLD-1 colon
KM20L2 colon = test system: KM20L2 colon
SF-295 CNS = test system: SF-295 CNS
OVCAR-4 ovarian = test system: OVCAR-4 ovarian
EKVX NSCLC = test system: EKVX NSCLC
DMS 114 small cell lung = test system: DMS 114 small cell lung
SK-MEL-5 melanoma = test system: SK-MEL-5 melanoma
NCI-H23 lung = test system: NCI-H23 lung
NCI-H460 lung = test system: NCI-H460 lung
HCT-15 colon = test system: HCT-15 colon
NCI-H522 lung = test system: NCI-H522 lung
786-0 renal = test system: 786-0 renal
RXF 393 renal = test system: RXF 393 renal
DMS 273 small cell lung = test system: DMS 273 small cell lung
U251 CNS = test system: U251 CNS
COLO 205 colon = test system: COLO 205 colon
OVCAR-8 ovarian = test system: OVCAR-8 ovarian
CAKI-1 renal = test system: CAKI-1 renal
SW-620 colon = test system: SW-620 colon
MALME-3M melanoma = test system: MALME-3M melanoma
SF-268 CNS = test system: SF-268 CNS
HCC-2998 colon = test system: HCC-2998 colon
IGROV1 ovarian = test system: IGROV1 ovarian
SK-MEL-28 melanoma = test system: SK-MEL-28 melanoma
HOP-18 NSCLC = test system: HOP-18 NSCLC
OVCAR-3 ovarian = test system: OVCAR-3 ovarian
NCI-H226 lung = test system: NCI-H226 lung
SNB-19 CNS = test system: SNB-19 CNS
UACC-62 melanoma = test system: UACC-62 melanoma
TK-10 renal = test system: TK-10 renal
SNB-75 CNS = test system: SNB-75 CNS
M19-MEL melanoma = test system: M19-MEL melanoma
M14 melanoma = test system: M14 melanoma
LXFL 529 NSCLC = test system: LXFL 529 NSCLC
KM12 colon = test system: KM12 colon
SN12C renal = test system: SN12C renal
XF 498 CNS = test system: XF 498 CNS
SR leukemia = test system: SR leukemia
RPMI-8226 leukemia = test system: RPMI-8226 leukemia
LOX IMVI melanoma = test system: LOX IMVI melanoma
UO-31 renal = test system: UO-31 renal
K-562 leukemia = test system: K-562 leukemia
HOP-92 NSCLC = test system: HOP-92 NSCLC
HL-60(TB) leukemia = test system: HL-60(TB) leukemia
CCRF-CEM leukemia = test system: CCRF-CEM leukemia
HOP-62 NSCLC = test system: HOP-62 NSCLC
A498 renal = test system: A498 renal
ACHN renal = test system: ACHN renal
SK-OV-3 ovarian = test system: SK-OV-3 ovarian
MOLT-4 leukemia = test system: MOLT-4 leukemia
UACC-257 melanoma = test system: UACC-257 melanoma
HT29 colon = test system: HT29 colon

CC(C)(C)N=Cc1ccccc1[O-].CC(C)(C)N=Cc1ccccc1[O-].[Co+2]
GI50 (OVCAR-5 ovarian): 3.31 µM
TGI (OVCAR-5 ovarian): > 100 µM
GI50 (RXF-631 renal): 23.2 µM
TGI (RXF-631 renal): > 100 µM
GI50 (HCT-116 colon): 80.4 µM
TGI (HCT-116 colon): > 100 µM
GI50 (SK-MEL-2 melanoma): > 100 µM
TGI (SK-MEL-2 melanoma): > 100 µM
GI50 (SF-539 CNS): > 100 µM
TGI (SF-539 CNS): > 100 µM
GI50 (A549 NSCLC): > 100 µM
TGI (A549 NSCLC): > 100 µM
GI50 (DLD-1 colon): 52.7 µM
TGI (DLD-1 colon): > 100 µM
GI50 (KM20L2 colon): 72.8 µM
TGI (KM20L2 colon): > 100 µM
GI50 (SF-295 CNS): > 100 µM
TGI (SF-295 CNS): > 100 µM
GI50 (OVCAR-4 ovarian): 56.5 µM
TGI (OVCAR-4 ovarian): > 100 µM
GI50 (EKVX NSCLC): 60.7 µM
TGI (EKVX NSCLC): > 100 µM
GI50 (DMS 114 small cell lung): 26.1 µM
TGI (DMS 114 small cell lung): > 100 µM
GI50 (SK-MEL-5 melanoma): 89.4 µM
TGI (SK-MEL-5 melanoma): > 100 µM
GI50 (NCI-H23 lung): 8.39 µM
TGI (NCI-H23 lung): > 100 µM
GI50 (NCI-H460 lung): > 100 µM
TGI (NCI-H460 lung): > 100 µM
GI50 (HCT-15 colon): > 100 µM
TGI (HCT-15 colon): > 100 µM
GI50 (NCI-H522 lung): 30.3 µM
TGI (NCI-H522 lung): > 100 µM
GI50 (786-0 renal): 72.4 µM
TGI (786-0 renal): > 100 µM
GI50 (RXF 393 renal): > 100 µM
TGI (RXF 393 renal): > 100 µM
GI50 (DMS 273 small cell lung): 37.2 µM
TGI (DMS 273 small cell lung): > 100 µM
GI50 (U251 CNS): 58.2 µM
TGI (U251 CNS): > 100 µM
GI50 (COLO 205 colon): 45.3 µM
TGI (COLO 205 colon): > 100 µM
GI50 (OVCAR-8 ovarian): 76.7 µM
TGI (OVCAR-8 ovarian): > 100 µM
GI50 (CAKI-1 renal): 59.3 µM
TGI (CAKI-1 renal): > 100 µM
GI50 (SW-620 colon): 70.3 µM
TGI (SW-620 colon): > 100 µM
GI50 (MALME-3M melanoma): 93.5 µM
TGI (MALME-3M melanoma): > 100 µM
GI50 (SF-268 CNS): 60.7 µM
TGI (SF-268 CNS): > 100 µM
GI50 (HCC-2998 colon): > 100 µM
TGI (HCC-2998 colon): > 100 µM
GI50 (IGROV1 ovarian): 22.8 µM
TGI (IGROV1 ovarian): > 100 µM
GI50 (SK-MEL-28 melanoma): 55.8 µM
TGI (SK-MEL-28 melanoma): > 100 µM
GI50 (HOP-18 NSCLC): 7.08 µM
TGI (HOP-18 NSCLC): 83 µM
GI50 (OVCAR-3 ovarian): 17.4 µM
TGI (OVCAR-3 ovarian): > 100 µM
GI50 (NCI-H226 lung): 21.9 µM
TGI (NCI-H226 lung): > 100 µM
GI50 (SNB-19 CNS): > 100 µM
TGI (SNB-19 CNS): > 100 µM
GI50 (UACC-62 melanoma): 12.1 µM
TGI (UACC-62 melanoma): > 100 µM
GI50 (TK-10 renal): 44.5 µM
TGI (TK-10 renal): > 100 µM
GI50 (SNB-75 CNS): > 100 µM
TGI (SNB-75 CNS): > 100 µM
GI50 (M19-MEL melanoma): 54.4 µM
TGI (M19-MEL melanoma): > 100 µM
GI50 (M14 melanoma): 30.2 µM
TGI (M14 melanoma): > 100 µM
GI50 (LXFL 529 NSCLC): 83.9 µM
TGI (LXFL 529 NSCLC): > 100 µM
GI50 (KM12 colon): > 100 µM
TGI (KM12 colon): > 100 µM
GI50 (SN12C renal): > 100 µM
TGI (SN12C renal): > 100 µM
GI50 (XF 498 CNS): > 100 µM
TGI (XF 498 CNS): > 100 µM
GI50 (SR leukemia): 6.3 µM
TGI (SR leukemia): > 100 µM
GI50 (RPMI-8226 leukemia): 18 µM
TGI (RPMI-8226 leukemia): > 100 µM
GI50 (LOX IMVI melanoma): > 100 µM
TGI (LOX IMVI melanoma): > 100 µM
GI50 (UO-31 renal): 18.8 µM
TGI (UO-31 renal): > 100 µM

Nc1nc[n+](Cc2ccccc2CCO)c2nc[nH]c12
TGI (OVCAR-5 ovarian): > 100 µM
TGI (RXF-631 renal): > 100 µM
TGI (SK-MEL-2 melanoma): > 100 µM
TGI (SF-539 CNS): > 100 µM
TGI (A549 NSCLC): > 100 µM
TGI (K-562 leukemia): > 100 µM
TGI (HOP-92 NSCLC): > 100 µM
TGI (KM20L2 colon): > 100 µM
TGI (SF-295 CNS): > 100 µM
TGI (OVCAR-4 ovarian): > 100 µM
TGI (EKVX NSCLC): > 100 µM
TGI (DMS 114 small cell lung): > 100 µM
TGI (HL-60(TB) leukemia): > 100 µM
TGI (SK-MEL-5 melanoma): > 100 µM
TGI (NCI-H23 lung): > 100 µM
TGI (CCRF-CEM leukemia): > 100 µM
TGI (NCI-H460 lung): > 100 µM
TGI (HOP-62 NSCLC): > 100 µM
TGI (HCT-15 colon): > 100 µM
TGI (NCI-H522 lung): > 100 µM
TGI (786-0 renal): > 100 µM
TGI (RXF 393 renal): > 100 µM
TGI (DMS 273 small cell lung): > 100 µM
TGI (U251 CNS): > 100 µM
TGI (COLO 205 colon): > 100 µM
TGI (OVCAR-8 ovarian): > 100 µM
TGI (CAKI-1 renal): > 100 µM
TGI (SW-620 colon): > 100 µM
TGI (A498 renal): > 100 µM
TGI (MALME-3M melanoma): > 100 µM
TGI (ACHN renal): > 100 µM
TGI (SK-OV-3 ovarian): > 100 µM
TGI (SF-268 CNS): > 100 µM
TGI (IGROV1 ovarian): > 100 µM
TGI (SK-MEL-28 melanoma): > 100 µM
TGI (HOP-18 NSCLC): > 100 µM
TGI (OVCAR-3 ovarian): > 100 µM
TGI (NCI-H226 lung): > 100 µM
TGI (MOLT-4 leukemia): > 100 µM
TGI (SNB-19 CNS): > 100 µM
TGI (UACC-257 melanoma): > 100 µM
TGI (UACC-62 melanoma): > 100 µM
TGI (TK-10 renal): > 100 µM
TGI (SNB-75 CNS): > 100 µM
TGI (M19-MEL melanoma): > 100 µM
TGI (M14 melanoma): > 100 µM
TGI (LXFL 529 NSCLC): > 100 µM
TGI (KM12 colon): > 100 µM
TGI (SN12C renal): > 100 µM
TGI (XF 498 CNS): > 100 µM
TGI (HT29 colon): > 100 µM
TGI (RPMI-8226 leukemia): > 100 µM
TGI (LOX IMVI melanoma): > 100 µM
TGI (UO-31 renal): > 100 µM
